The supplement of paper PMC10307832

Legend:
Experiment in all cases: relative viability (nuclei count vs DMSO), 5 days (fraction); higher = more cells survive
NVP-TAE684 + Vorinostat = compound: COc1cc(N2CCC(N3CCN(C)CC3)CC2)ccc1Nc1ncc(Cl)c(Nc2ccccc2S(=O)(=O)C(C)C)n1 [NVP-TAE684] + O=C(CCCCCCC(=O)Nc1ccccc1)NO [Vorinostat] (partner 1 µM)
Outline: (§1)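 Lung cancer cell lines were seeded in 1536-well plates and dosed by pin tool the next day, with either a single drug or a fixed anchor-drug dose combined with five library-drug doses (not always all listed) spaced in √10 steps. Five days later, one step fixed the cells and stained their nuclei (final 0.05% Triton X-100, 1% formaldehyde, 1 ug/ml Hoechst), and nuclei were counted on 4× images. Relative viability is the nuclei count in treated wells divided by the count in vehicle wells, and each value is the median of duplicate plates.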

CUDC-101 + Olaparib = compound: C#Cc1cccc(Nc2ncnc3cc(OC)c(OCCCCCCC(=O)NO)cc23)c1 [CUDC-101] + O=C(c1cc(Cc2n[nH]c(=O)c3ccccc23)ccc1F)N1CCN(C(=O)C2CC2)CC1 [Olaparib] (partner 8 µM)
Outline: as §1

NVP-TAE684 + Navitoclax = compound: COc1cc(N2CCC(N3CCN(C)CC3)CC2)ccc1Nc1ncc(Cl)c(Nc2ccccc2S(=O)(=O)C(C)C)n1 [NVP-TAE684] + CC1(C)CCC(c2ccc(Cl)cc2)=C(CN2CCN(c3ccc(C(=O)NS(=O)(=O)c4ccc(N[C@H](CCN5CCOCC5)CSc5ccccc5)c(S(=O)(=O)C(F)(F)F)c4)cc3)CC2)C1 [Navitoclax] (partner 0.5 µM)
Outline: as §1

NVP-TAE684 + Bortezomib = compound: COc1cc(N2CCC(N3CCN(C)CC3)CC2)ccc1Nc1ncc(Cl)c(Nc2ccccc2S(=O)(=O)C(C)C)n1 [NVP-TAE684] + CC(C)C[C@H](NC(=O)[C@H](Cc1ccccc1)NC(=O)c1cnccn1)B(O)O [Bortezomib] (partner 0.002 µM)
Outline: as §1

CUDC-101 + Lapatinib = compound: C#Cc1cccc(Nc2ncnc3cc(OC)c(OCCCCCCC(=O)NO)cc23)c1 [CUDC-101] + CS(=O)(=O)CCNCc1ccc(-c2ccc3ncnc(Nc4ccc(OCc5cccc(F)c5)c(Cl)c4)c3c2)o1 [Lapatinib] (partner 2 µM)
Outline: as §1

Cell Line	relative viability (NVP-TAE684 + Vorinostat; first compound 0.2 µM)	relative viability (NVP-TAE684 + Vorinostat; first compound 0.6325 µM)	relative viability (NVP-TAE684 + Vorinostat; first compound 2 µM)	relative viability (CUDC-101 + Olaparib; first compound 0.01 µM)	relative viability (CUDC-101 + Olaparib; first compound 0.03162 µM)	relative viability (CUDC-101 + Olaparib; first compound 0.1 µM)	relative viability (CUDC-101 + Olaparib; first compound 0.3162 µM)	relative viability (CUDC-101 + Olaparib; first compound 1 µM)	relative viability (NVP-TAE684 + Navitoclax; first compound 0.2 µM)	relative viability (NVP-TAE684 + Navitoclax; first compound 0.6325 µM)	relative viability (NVP-TAE684 + Navitoclax; first compound 2 µM)	relative viability (NVP-TAE684 + Bortezomib; first compound 0.2 µM)	relative viability (NVP-TAE684 + Bortezomib; first compound 0.6325 µM)	relative viability (NVP-TAE684 + Bortezomib; first compound 2 µM)	relative viability (CUDC-101 + Lapatinib; first compound 0.01 µM)	relative viability (CUDC-101 + Lapatinib; first compound 0.03162 µM)	relative viability (CUDC-101 + Lapatinib; first compound 0.1 µM)	relative viability (CUDC-101 + Lapatinib; first compound 0.3162 µM)	relative viability (CUDC-101 + Lapatinib; first compound 1 µM)
ChaGo-K-1	0.786	0.691	0.518	0.41	0.444	0.42	0.377	0.293	1.54	0.644	1.03	1.18	0.691	0.952					
EBC-1				0.744	0.674	0.683	0.666	0.26	0.323	0.247	0.245	0.515	0.544	0.341	0.224	0.212	0.214	0.215	0.196
EKVX	0.677	0.699	0.373	1.06	0.737	0.71	0.961	0.624	0.994	0.907	0.613	0.98	0.926	0.587	0.255	0.199	0.22	0.203	0.169
EMC-BAC-2	0.46	0.338	0.393	0.493	0.485	0.485	0.532	0.376	1.12	1.13	0.695		1.01	0.734	0.836	0.88	0.909	0.974	0.485
EPLC-272H	0.644	0.283	0.2	0.885	0.703	0.596	0.448	0.365	1.02		1.48	1.23		0.66	1.13	0.987	1	0.392	0.482
H3255	0.855	0.757	0.667	0.653	0.547	0.512	0.442	0.264	0.6	0.417	0.382	0.766	0.618	0.746	0.244	0.248	0.24	0.248	0.174
HARA	0.525	0.464	0.23	1	0.844		0.418	0.154	1.02		0.701	1.31	1.1	1.05	0.739	0.789	0.739	0.71	0.453
HCC-15	0.841	0.855	0.521	0.684	0.726	0.652	0.665	0.499	0.72	0.681	0.375	0.916	1.07	1	0.857	0.908	0.831	0.845	0.698
